In the NIST ThermoML archive (doi:10.1016/j.jct.2008.10.016):
Numbers after ± are expanded uncertainties.

Tests used:
[1] = Drop volume
[2] = xn = mol fraction of the nth substance listed; details: Drop volume

SMILES: CCCCCl [1-chlorobutane]
- surface tension liquid-gas ([1]; 283.15 K): 24.73 ± 0.31 mN/m
- surface tension liquid-gas ([1]; 288.15 K): 24.24 ± 0.3 mN/m
- surface tension liquid-gas ([1]; 293.15 K): 23.64 ± 0.29 mN/m
- surface tension liquid-gas ([1]; 298.15 K): 23.29 ± 0.29 mN/m
- surface tension liquid-gas ([1]; 303.15 K): 22.62 ± 0.28 mN/m
- surface tension liquid-gas ([1]; 308.15 K): 22.03 ± 0.28 mN/m
- surface tension liquid-gas ([1]; 313.15 K): 21.53 ± 0.27 mN/m

SMILES: CCCCCCl [1-chloropentane]
- surface tension liquid-gas ([1]; 283.15 K): 26.02 ± 0.32 mN/m
- surface tension liquid-gas ([1]; 288.15 K): 25.58 ± 0.32 mN/m
- surface tension liquid-gas ([1]; 293.15 K): 25.02 ± 0.31 mN/m
- surface tension liquid-gas ([1]; 298.15 K): 24.46 ± 0.3 mN/m
- surface tension liquid-gas ([1]; 303.15 K): 24.02 ± 0.3 mN/m
- surface tension liquid-gas ([1]; 308.15 K): 23.51 ± 0.29 mN/m
- surface tension liquid-gas ([1]; 313.15 K): 23.02 ± 0.29 mN/m

SMILES: CCCCCl [1-chlorobutane] + CCCCCC
- surface tension liquid-gas ([2]; 283.15 K, x2 = 0.0493): 24.17 ± 0.3 mN/m
- surface tension liquid-gas ([2]; 283.15 K, x2 = 0.1016): 23.7 ± 0.29 mN/m
- surface tension liquid-gas ([2]; 283.15 K, x2 = 0.2048): 22.96 ± 0.29 mN/m
- surface tension liquid-gas ([2]; 283.15 K, x2 = 0.3038): 22.32 ± 0.28 mN/m
- surface tension liquid-gas ([2]; 283.15 K, x2 = 0.3967): 21.82 ± 0.27 mN/m
- surface tension liquid-gas ([2]; 283.15 K, x2 = 0.5015): 21.29 ± 0.27 mN/m
- surface tension liquid-gas ([2]; 283.15 K, x2 = 0.6086): 20.85 ± 0.26 mN/m
- surface tension liquid-gas ([2]; 283.15 K, x2 = 0.7097): 20.48 ± 0.26 mN/m
- surface tension liquid-gas ([2]; 283.15 K, x2 = 0.804): 20.19 ± 0.26 mN/m
- surface tension liquid-gas ([2]; 283.15 K, x2 = 0.9021): 19.91 ± 0.25 mN/m
- surface tension liquid-gas ([2]; 283.15 K, x2 = 0.9391): 19.81 ± 0.25 mN/m
- surface tension liquid-gas ([2]; 288.15 K, x2 = 0.0493): 23.68 ± 0.29 mN/m
- surface tension liquid-gas ([2]; 288.15 K, x2 = 0.1016): 23.21 ± 0.29 mN/m
- surface tension liquid-gas ([2]; 288.15 K, x2 = 0.2048): 22.46 ± 0.28 mN/m
- surface tension liquid-gas ([2]; 288.15 K, x2 = 0.3038): 21.83 ± 0.27 mN/m
- surface tension liquid-gas ([2]; 288.15 K, x2 = 0.3967): 21.32 ± 0.27 mN/m
- surface tension liquid-gas ([2]; 288.15 K, x2 = 0.5015): 20.78 ± 0.26 mN/m
- surface tension liquid-gas ([2]; 288.15 K, x2 = 0.6086): 20.31 ± 0.26 mN/m
- surface tension liquid-gas ([2]; 288.15 K, x2 = 0.7097): 19.93 ± 0.25 mN/m
- surface tension liquid-gas ([2]; 288.15 K, x2 = 0.804): 19.63 ± 0.25 mN/m
- surface tension liquid-gas ([2]; 288.15 K, x2 = 0.9021): 19.35 ± 0.25 mN/m
- surface tension liquid-gas ([2]; 288.15 K, x2 = 0.9391): 19.24 ± 0.25 mN/m
- surface tension liquid-gas ([2]; 293.15 K, x2 = 0.0493): 23.11 ± 0.29 mN/m
- surface tension liquid-gas ([2]; 293.15 K, x2 = 0.1016): 22.63 ± 0.28 mN/m
- surface tension liquid-gas ([2]; 293.15 K, x2 = 0.2048): 21.88 ± 0.27 mN/m
- surface tension liquid-gas ([2]; 293.15 K, x2 = 0.3038): 21.28 ± 0.27 mN/m
- surface tension liquid-gas ([2]; 293.15 K, x2 = 0.3967): 20.79 ± 0.26 mN/m
- surface tension liquid-gas ([2]; 293.15 K, x2 = 0.5015): 20.25 ± 0.26 mN/m
- surface tension liquid-gas ([2]; 293.15 K, x2 = 0.6086): 19.77 ± 0.25 mN/m
- surface tension liquid-gas ([2]; 293.15 K, x2 = 0.7097): 19.4 ± 0.25 mN/m
- surface tension liquid-gas ([2]; 293.15 K, x2 = 0.804): 19.1 ± 0.24 mN/m
- surface tension liquid-gas ([2]; 293.15 K, x2 = 0.9021): 18.84 ± 0.24 mN/m
- surface tension liquid-gas ([2]; 293.15 K, x2 = 0.9391): 18.73 ± 0.24 mN/m
- surface tension liquid-gas ([2]; 298.15 K, x2 = 0.0493): 22.74 ± 0.28 mN/m
- surface tension liquid-gas ([2]; 298.15 K, x2 = 0.1016): 22.27 ± 0.28 mN/m
- surface tension liquid-gas ([2]; 298.15 K, x2 = 0.2048): 21.52 ± 0.27 mN/m
- surface tension liquid-gas ([2]; 298.15 K, x2 = 0.3038): 20.93 ± 0.26 mN/m
- surface tension liquid-gas ([2]; 298.15 K, x2 = 0.3967): 20.43 ± 0.26 mN/m
- surface tension liquid-gas ([2]; 298.15 K, x2 = 0.5015): 19.89 ± 0.25 mN/m
- surface tension liquid-gas ([2]; 298.15 K, x2 = 0.6086): 19.39 ± 0.25 mN/m
- surface tension liquid-gas ([2]; 298.15 K, x2 = 0.7097): 19 ± 0.24 mN/m
- surface tension liquid-gas ([2]; 298.15 K, x2 = 0.804): 18.71 ± 0.24 mN/m
- surface tension liquid-gas ([2]; 298.15 K, x2 = 0.9021): 18.43 ± 0.24 mN/m
- surface tension liquid-gas ([2]; 298.15 K, x2 = 0.9391): 18.31 ± 0.24 mN/m
- surface tension liquid-gas ([2]; 303.15 K, x2 = 0.0493): 22.08 ± 0.28 mN/m
- surface tension liquid-gas ([2]; 303.15 K, x2 = 0.1016): 21.62 ± 0.27 mN/m
- surface tension liquid-gas ([2]; 303.15 K, x2 = 0.2048): 20.89 ± 0.26 mN/m
- surface tension liquid-gas ([2]; 303.15 K, x2 = 0.3038): 20.32 ± 0.26 mN/m
- surface tension liquid-gas ([2]; 303.15 K, x2 = 0.3967): 19.83 ± 0.25 mN/m
- surface tension liquid-gas ([2]; 303.15 K, x2 = 0.5015): 19.31 ± 0.25 mN/m
- surface tension liquid-gas ([2]; 303.15 K, x2 = 0.6086): 18.82 ± 0.24 mN/m
- surface tension liquid-gas ([2]; 303.15 K, x2 = 0.7097): 18.46 ± 0.24 mN/m
- surface tension liquid-gas ([2]; 303.15 K, x2 = 0.804): 18.18 ± 0.23 mN/m
- surface tension liquid-gas ([2]; 303.15 K, x2 = 0.9021): 17.91 ± 0.23 mN/m
- surface tension liquid-gas ([2]; 303.15 K, x2 = 0.9391): 17.79 ± 0.23 mN/m
- surface tension liquid-gas ([2]; 308.15 K, x2 = 0.0493): 21.5 ± 0.27 mN/m
- surface tension liquid-gas ([2]; 308.15 K, x2 = 0.1016): 21.03 ± 0.27 mN/m
- surface tension liquid-gas ([2]; 308.15 K, x2 = 0.2048): 20.28 ± 0.26 mN/m
- surface tension liquid-gas ([2]; 308.15 K, x2 = 0.3038): 19.69 ± 0.25 mN/m
- surface tension liquid-gas ([2]; 308.15 K, x2 = 0.3967): 19.18 ± 0.24 mN/m
- surface tension liquid-gas ([2]; 308.15 K, x2 = 0.5015): 18.64 ± 0.24 mN/m
- surface tension liquid-gas ([2]; 308.15 K, x2 = 0.6086): 18.14 ± 0.23 mN/m
- surface tension liquid-gas ([2]; 308.15 K, x2 = 0.7097): 17.77 ± 0.23 mN/m
- surface tension liquid-gas ([2]; 308.15 K, x2 = 0.804): 17.46 ± 0.23 mN/m
- surface tension liquid-gas ([2]; 308.15 K, x2 = 0.9021): 17.16 ± 0.22 mN/m
- surface tension liquid-gas ([2]; 308.15 K, x2 = 0.9391): 17.02 ± 0.22 mN/m
- surface tension liquid-gas ([2]; 313.15 K, x2 = 0.0493): 21.04 ± 0.27 mN/m
- surface tension liquid-gas ([2]; 313.15 K, x2 = 0.1016): 20.59 ± 0.26 mN/m
- surface tension liquid-gas ([2]; 313.15 K, x2 = 0.2048): 19.84 ± 0.25 mN/m
- surface tension liquid-gas ([2]; 313.15 K, x2 = 0.3038): 19.28 ± 0.25 mN/m
- surface tension liquid-gas ([2]; 313.15 K, x2 = 0.3967): 18.79 ± 0.24 mN/m
- surface tension liquid-gas ([2]; 313.15 K, x2 = 0.5015): 18.27 ± 0.23 mN/m
- surface tension liquid-gas ([2]; 313.15 K, x2 = 0.6086): 17.81 ± 0.23 mN/m
- surface tension liquid-gas ([2]; 313.15 K, x2 = 0.7097): 17.47 ± 0.23 mN/m
- surface tension liquid-gas ([2]; 313.15 K, x2 = 0.804): 17.18 ± 0.22 mN/m
- surface tension liquid-gas ([2]; 313.15 K, x2 = 0.9021): 16.89 ± 0.22 mN/m
- surface tension liquid-gas ([2]; 313.15 K, x2 = 0.9391): 16.75 ± 0.22 mN/m
